Patent publication US12329799B2, “Peptidyl inhibitors of calcineurin-NFAT interaction” (Ohio State Innovation Foundation, priority 2018, dated 2025)
Positions of bridges follow the written chain, without caps; N, C: chain ends. Non-standard residues stand in square brackets, D forms with d. Residues, ends and D or L forms follow the SMILES beside them. Chains are numbered I, II in the order given. *: point of attachment. Benzoyl(2,3-Cl2) = O=C(c1cccc(Cl)c1Cl)*; 2Nal = N[C@@H](Cc1ccc2ccccc2c1)C(=O)O; Tle = CC(C)(C)[C@H](N)C(=O)O; βAla = NCCC(=O)O

Columns and labels:
[1] = system: HeLa cells; experiment: Cytosolic delivery assay (NF-labeled peptides, flow cytometry); assay type: cell-based; conditions: 5 μM, 2 h, relative to CPP9 = 100%
Method: The NF fluorescence intensity of the treated cells therefore reflects the amount of the peptide that has reached the cytosol and nucleus of the cells. […] Live-cell confocal microscopic analysis confirmed that CNI93 reached the interior of HeLa cells.
Cytosolic Delivery Assay. HeLa cells maintained in DMEM supplemented with 10% FBS and 1% penicillin/streptomycin were seeded into 12-well plates (1.5×10^5 cells per well) and incubated overnight at 37° C., 5% CO2. The following day, the cells were washed with DPBS and incubated with 5 μM NF-labeled peptides dissolved in DMEM containing 10% FBS, 1% penicllin/streptomycin for 2 h at 37° C. in the presence of 5% CO2. After that, the cells were washed with DPBS and harvested from the plate by treatment with 0.25% trypsin for 5 min. Cells were centrifuged at 300×RCF, washed twice with cold DPBS, and resuspended in cold DPBS for flow cytometry analysis on a BD LSR II flow cytometer followed by data analysis and gating using Flowjo. Calculation of cytosolic uptake efficiencies was carried out as previously described by Qian, Z., et al., Discovery and Mechanism of Highly Efficient Cyclic Cell-Penetrating Peptides. Biochemistry 2016, 55, 2601-2612.

[2] = system: HeLa cells; experiment: MTT assay, HeLa; assay type: cell-based; conditions: 72 h
Method: MTT Proliferation Assay. HeLa, Jurkat-Lucia, or H441 cells were seeded into a 96-well microplate (5000 cells per well) in full growth media and incubated at 37° C. overnight. A serial dilution of each compound was prepared in DPBS and then added to each well. The treated cells were incubated at 37° C. with 5% CO2 for 72 h. Following compound treatment, 10 μL of MTT stock solution was added to each well. After an additional 4 h at 37° C., 100 μL of SDS-HCl solubilizing solution was added to each well and the plate was returned to the incubator overnight at 37° C. A Tecan Infinite M1000 Pro microplate reader was used the following morning to measure the absorbance of the formazan product at 565 nm.
Potential cytotoxicity of CNI101 (SEQ ID NO: 206) and CNI103 (SEQ ID NO: 208) was tested on HeLa cells by the MTT proliferation assay. HeLa cells were seeded into a 96-well microplate (5000 cells per well) in full growth media and incubated at 37° C. overnight. A serial dilution of each inhibitor was prepared in DPBS and then added to each well. The treated cells were incubated at 37° C. with 5% CO2 for 72 h. Following compound treatment, 10 μL of MTT stock solution was added to each well. After an additional 4 h at 37° C., 100 μL of SDS-HCl solubilizing solution was added to each well and the plate was returned to the incubator overnight at 37° C. A Tecan Infinite M1000 Pro microplate reader was used the following morning to measure the absorbance of the formazan product at 565 nm.

[3] = Maximum tolerated dose (body weight over 10 days); assay type: in vivo

**Q.** What does the source list for `CC[C@H](C)[C@H](NC(=O)[C@@H](NC(=O)c1cccc(Cl)c1Cl)C(C)(C)C)C(=O)N[C@H](C(=O)N[C@H](C(=O)N[C@H](C(=O)N[C@@H](CCC(N)=O)C(=O)N[C@@H](Cc1c[nH]cn1)C(=O)N[C@H](CC(C)C)C(=O)N[C@@H](CO)C(=O)NCCC(=O)N[C@@H](CCCCNC(=O)CC[C@@H]1NC(=O)[C@@H](CCCNC(=N)N)NC(=O)[C@H](CCCNC(=N)N)NC(=O)[C@@H](CCCNC(=N)N)NC(=O)[C@H](CCCNC(=N)N)NC(=O)[C@H](Cc2ccc3ccccc3c2)NC(=O)[C@@H](Cc2ccccc2)NC1=O)C(N)=O)[C@@H](C)O)[C@@H](C)CC)C(C)(C)C` [CNI93] (I: {Benzoyl(2,3-Cl2)}-[Tle]I[Tle]ITQH[dL]S[βAla]K-NH2 / II: cyclo([2Nal]R[dR]R[dR]E[dF]); amide I:11-II:6 (inferred); ring closure inferred)?
**A.** relative cytosolic delivery efficiency [1]: 109%; cytotoxicity ([2]; 25 μM): No significant cytotoxicity; cell viability ([2]; 50 μM): Reduction in cell viability; body weight ([3]; intranasal 10 mg/kg): steady increase in body weight similar to healthy controls; survival and signs of distress ([3]; intranasal 10 mg/kg): survived and showed no visible sign of distress; body weight ([3]; intranasal 50 mg/kg): steady increase in body weight similar to healthy controls; survival and signs of distress ([3]; intranasal 50 mg/kg): survived and showed no visible sign of distress
